As a reminder, the IC50 is the point on the concentration scale where inhibition reaches its midpoint.

Where only a bound is given, the exact number is not on record here.

The target of this assay is T1, USP25 (USP25-His6, Boston Biochem E-546) (Homo sapiens, UniProt Q9UHP3).
T1 construct: His6; purchased Boston Biochem E-546
T1 sequence (Q9UHP3 1-1055): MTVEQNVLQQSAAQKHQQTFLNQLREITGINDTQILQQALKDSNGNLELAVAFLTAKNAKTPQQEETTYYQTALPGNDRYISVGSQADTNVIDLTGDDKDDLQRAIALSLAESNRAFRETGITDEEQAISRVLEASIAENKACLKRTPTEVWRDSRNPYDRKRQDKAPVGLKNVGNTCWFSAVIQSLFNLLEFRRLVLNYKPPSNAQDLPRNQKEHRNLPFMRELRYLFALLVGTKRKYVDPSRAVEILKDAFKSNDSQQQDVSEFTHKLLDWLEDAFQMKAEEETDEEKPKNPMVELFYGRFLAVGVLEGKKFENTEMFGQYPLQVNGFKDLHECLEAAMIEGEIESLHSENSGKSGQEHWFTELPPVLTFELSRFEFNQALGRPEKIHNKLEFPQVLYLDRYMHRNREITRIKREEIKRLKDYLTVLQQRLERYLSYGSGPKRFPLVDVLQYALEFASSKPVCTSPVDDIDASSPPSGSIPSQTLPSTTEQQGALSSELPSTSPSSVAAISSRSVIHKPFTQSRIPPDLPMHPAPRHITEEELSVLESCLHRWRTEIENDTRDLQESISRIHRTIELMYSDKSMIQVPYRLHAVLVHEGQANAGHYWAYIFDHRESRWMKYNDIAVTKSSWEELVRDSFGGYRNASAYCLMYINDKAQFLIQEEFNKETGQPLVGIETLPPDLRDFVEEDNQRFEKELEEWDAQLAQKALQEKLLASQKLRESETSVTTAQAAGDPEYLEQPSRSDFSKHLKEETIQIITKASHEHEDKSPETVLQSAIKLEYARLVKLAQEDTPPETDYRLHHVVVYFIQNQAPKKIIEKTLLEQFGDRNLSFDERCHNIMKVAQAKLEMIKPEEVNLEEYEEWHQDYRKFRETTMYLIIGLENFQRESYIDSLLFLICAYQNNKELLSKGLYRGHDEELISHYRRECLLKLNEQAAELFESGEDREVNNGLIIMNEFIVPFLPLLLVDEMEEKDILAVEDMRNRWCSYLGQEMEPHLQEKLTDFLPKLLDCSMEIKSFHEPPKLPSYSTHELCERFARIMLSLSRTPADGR
Nature of the assay: Ubiquitin-Rhodamine 110 Assay for USP25 Activity, Example A-2. The class given is biochemical. The note with it: Ubiquitin-Rhodamine 110 assay, Example A-2; read-out: USP25 A-2 IC50 range. The procedure, abridged:
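75 pM USP25-His6 was preincubated 30 min with compound (10-point 3-fold series, 25 μM–1.3 nM) in pH 8.0 Tris buffer with BME, BGG and Triton X-100. Then 25 nM Ub-Rh110 (<<Km) was added for 45 min at room temperature, stopped with citric acid, fluorescence read at 485/535 nm, IC50 by 4-parameter fit.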
Regarding `CO[C@H]1CN(c2ccc3c(n2)CC[C@H](NC(=O)c2sc4nc(C)c(F)cc4c2N)C3)C[C@@H]1N` [Example 203, 3-amino-N-[(6S)-2-[(3S,4S)-3-amino-4-methoxypyrrolidin-1-yl]-5,6,7,8-tetrahydroquinolin-6-yl}-5-fluoro-6-methylthieno[2,3-b]pyridine-2-carboxamide], the IC50 is > 2 µM.

Regarding `Cc1ccc2c(N)c(C(=O)N[C@H]3COc4cc(N5C6CNCC5COC6)ccc4C3)sc2n1` [Example 209, 3-amino-6-methyl-N-[(3R)-7-{3-oxa-7,9-diazabicyclo[3.3.1]nonan-9-yl}-3,4-dihydro-2H-1-benzopyran-3-yl]thieno[2,3-b]pyridine-2-carboxamide], the IC50 lay in the range of 0.001 to 0.05 µM.

With `Cc1ccc2c(N)c(C(=O)N[C@H]3COc4cc(N5C[C@H](N)CC[C@H]5C(F)(F)F)ccc4C3)sc2n1` [Example 247, 3-amino-N-[(3R)-7-[(2S,5R)-5-amino-2-(trifluoromethyl)piperidin-1-yl]-3,4-dihydro-2H-1-benzopyran-3-yl]-6-methylthieno[2,3-b]pyridine-2-carboxamide], the half-maximal inhibitory concentration (IC50) lay within 0.05 to 0.2 µM. As to `CO[C@H]1CN(c2cc3c(c(F)c2C#N)C[C@@H](NC(=O)c2sc4nc(C)cnc4c2N)CO3)C[C@@H]1N` [Example 199, 7-amino-N-[(3R)-7-[(3S,4S)-3-amino-4-methoxypyrrolidin-1-yl]-6-cyano-5-fluoro-3,4-dihydro-2H-1-benzopyran-3-yl]-3-methylthieno[2,3-b]pyrazine-6-carboxamide], the 50% inhibitory concentration (IC50) fell in the range of 0.05 to 0.2 µM. Regarding `Cc1ccc2c(N)c(C(=O)N[C@H]3COc4cc(N5C[C@@H](N)CC[C@@H]5C(F)(F)F)ccc4C3)sc2n1` [Example 246, 3-amino-N-[(3R)-7-[(2R,5S)-5-amino-2-(trifluoromethyl)piperidin-1-yl]-3,4-dihydro-2H-1-benzopyran-3-yl]-6-methylthieno[2,3-b]pyridine-2-carboxamide], the IC50 lay within 0.001 to 0.05 µM. Take `Cc1ccc2c(N)c(C(=O)N[C@H]3COc4cc(N5CC[C@H]6CCNC[C@H]65)ccc4C3)sc2n1` [Example 224, N-[(3R)-7-[(3aR,7aS)-octahydro-1H-pyrrolo[2,3-c]pyridin-1-yl]-3,4-dihydro-2H-1-benzopyran-3-yl]-3-amino-6-methylthieno[2,3-b]pyridine-2-carboxamide]: the concentration for half-maximal inhibition (IC50) was in the range of 0.05 to 0.2 µM.

Consider `Cc1ccc2c(N)c(C(=O)N[C@H]3COc4cc(N5CC[C@@H]6CNCC[C@@H]65)ccc4C3)sc2n1` [Example 236, N-[(3R)-7-[(3aR,7aS)-octahydro-1H-pyrrolo[3,2-c]pyridin-1-yl]-3,4-dihydro-2H-1-benzopyran-3-yl]-3-amino-6-methylthieno[2,3-b]pyridine-2-carboxamide], for which the IC50 was in the range of 0.05 to 0.2 µM.

For `Cc1ccc2c(N)c(C(=O)N[C@H]3COc4cc(N5CC[C@@H]6CNC[C@@H]65)cc(F)c4C3)sc2n1` [Example 221, N-[(3R)-7-[(3aR,6aR)-octahydropyrrolo[2,3-c]pyrrol-1-yl]-5-fluoro-3,4-dihydro-2H-1-benzopyran-3-yl]-3-amino-6-methylthieno[2,3-b]pyridine-2-carboxamide], the IC50 lay within 0.2 to 2 µM.

For the compound `Cc1ccc2c(N)c(C(=O)N[C@H]3COc4cc(N5C[C@H](N)C(F)(F)C5)ccc4C3)sc2n1` [Example 256, 3-amino-N-[(3R)-7-[(4S)-4-amino-3,3-difluoropyrrolidin-1-yl]-3,4-dihydro-2H-1-benzopyran-3-yl]-6-methylthieno[2,3-b]pyridine-2-carboxamide], the concentration for half-maximal inhibition (IC50) lay within 0.2 to 2 µM. Then `COC[C@H]1CN(c2cc(F)c3c(c2)OC[C@H](NC(=O)c2sc4nc(C)ccc4c2N)C3)C[C@H]1N` [Example 251, 3-amino-N-[(3R)-7-[(3S,4S)-3-amino-4-(methoxymethyl)pyrrolidin-1-yl]-5-fluoro-3,4-dihydro-2H-1-benzopyran-3-yl]-6-methylthieno[2,3-b]pyridine-2-carboxamide], with 0.05 to 0.2 µM; and `Cc1ccc2c(N)c(C(=O)N[C@H]3COc4cc(N5C[C@H](N)C(C)(C)C5)ccc4C3)sc2n1` [Example 214, 3-amino-N-[(3R)-7-[(4R)-4-amino-3,3-dimethylpyrrolidin-1-yl]-3,4-dihydro-2H-1-benzopyran-3-yl]-6-methylthieno[2,3-b]pyridine-2-carboxamide], with 0.05 to 0.2 µM. With `Cc1ccc2c(N)c(C(=O)N[C@@H]3Cc4ccc(N5CCNCC5)nc4[C@H](C)C3)sc2n1` [Example 207, 3-amino-6-methyl-N-[(6S,8R)-8-methyl-2-(piperazin-1-yl)-5,6,7,8-tetrahydroquinolin-6-yl]thieno[2,3-b]pyridine-2-carboxamide], the 50% inhibitory concentration (IC50) is > 2 µM.

Consider `Cc1ccc2c(N)c(C(=O)N[C@H]3COc4cc(N5CC[C@H]6CC[C@@H](N)C[C@H]65)ccc4C3)sc2n1` [Example 231, N-[(3R)-7-[(3aR,6R,7aR)-6-amino-octahydro-1H-indol-1-yl]-3,4-dihydro-2H-1-benzopyran-3-yl]-3-amino-6-methylthieno[2,3-b]pyridine-2-carboxamide], for which the IC50 fell in the range of 0.001 to 0.05 µM.

For the compound `O=C(N[C@@H]1CCc2cc(N3CC4CCC(C3)N4)cc(F)c2C1)c1cnc2c(c1)[C@@H]1C[C@@H]1CN2` [Example 193, (6aS,7aR)-N-[(2R)-6-{3,8-diazabicyclo[3.2.1]octan-3-yl}-8-fluoro-1,2,3,4-tetrahydronaphthalen-2-yl]-5H,6H,6aH,7H,7aH-cyclopropa[c]1,8-naphthyridine-2-carboxamide], the IC50 was > 2 µM. Regarding `Cc1ccc2c(N)c(C(=O)N[C@H]3COc4cc(N5C[C@@H](N)C(C)(C)C5)ccc4C3)sc2n1` [Example 215, 3-amino-N-[(3R)-7-[(4S)-4-amino-3,3-dimethylpyrrolidin-1-yl]-3,4-dihydro-2H-1-benzopyran-3-yl]-6-methylthieno[2,3-b]pyridine-2-carboxamide], the concentration for half-maximal inhibition (IC50) is 0.05 to 0.2 µM.

With `Cc1ccc2c(N)c(C(=O)N[C@H]3COc4cc(N5CCO[C@@H]6CNC[C@@H]65)ccc4C3)sc2n1` [Example 185, N-[(3R)-7-[(4aS,7aR)-octahydropyrrolo[3,4-b]morpholin-4-yl]-3,4-dihydro-2H-1-benzopyran-3-yl]-3-amino-6-methylthieno[2,3-b]pyridine-2-carboxamide], the IC50 lay in the range of 0.05 to 0.2 µM. On to `CO[C@H]1CN(c2ccc3c(c2)CC[C@H](NC(=O)c2cnc4c(c2)C2CC2CN4)C3)C[C@@H]1N` (stereo partly drawn) [Example 188, N-[(2S)-6-[(3S,4S)-3-amino-4-methoxypyrrolidin-1-yl]-1,2,3,4-tetrahydronaphthalen-2-yl]-5H,6H,6aH,7H,7aH-cyclopropa[c]1,8-naphthyridine-2-carboxamide], for which the 50% inhibitory concentration (IC50) is > 2 µM. For the compound `Cc1ccc2c(N)c(C(=O)N[C@H]3COc4cc(N5CC[C@H]6CC[C@H](N)C[C@H]65)ccc4C3)sc2n1` [Example 232, N-[(3R)-7-[(3aR,6S,7aR)-6-amino-octahydro-1H-indol-1-yl]-3,4-dihydro-2H-1-benzopyran-3-yl]-3-amino-6-methylthieno[2,3-b]pyridine-2-carboxamide], the IC50 fell in the range of 0.05 to 0.2 µM. Then `CO[C@H]1CN(c2cc3c(cc2C#N)C[C@@H](NC(=O)c2sc4nc(C)ccc4c2N)CO3)C[C@@H]1N` [Example 177, 3-amino-N-[(3R)-7-[(3S,4S)-3-amino-4-methoxypyrrolidin-1-yl]-6-cyano-3-4-dihydro-2H-1-benzopyran-3-yl]-6-methylthieno[2,3-b]pyridine-2-carboxamide], with 0.05 to 0.2 µM.

The values above are taken from patent publication US11524966B1 (Valo Early Discovery, Inc., priority 2017, dated 2022).
